Data reported in US9814727B2, “Piperazine phenothiazine derivatives for treating spasticity” (UNIVERSITE D'AIX-MARSEILLE, priority 2014, dated 2017).

Columns and labels:
KCC2 [1] = test: FluxOR fluorescence based thallium (Tl+) influx assay on KCC2-expressing HEK293 cells; format: cell-based; conditions: HEK KCC2 compared to WT HEK cells, non-cytotoxic dose range
Protocol: Wild-type or KCC2-expressing Human Embryonic Kidney (HEK) 293 cells (provided by Prof. Eric Delpire Department of Anesthesiology, Vanderbilt University Medical Center, Nashville, Tenn.) were grown up to 80-90% confluence in DMEM/Ham's F-12 (1:1) (Life technologies, Carlsbad, Calif., USA) supplemented with 10% FBS (Life technologies), 50 units/mL penicillin, and 50 µg/mL streptomycin (Life technologies). KCC2-expressing clones were under puromycin selection (20 μg/ml, Life technologies).
The FluxOR™ potassium ion channel assay (Life Technologies Carlsbad, Calif., USA) was performed as outlined in the product information sheet and an earlier published study (Delpire et al., 2009, Proc. Natl. Acad. Sci. USA, 106, 5383-88) to assess KCC2 activity, and adapted to semi-automated high throughput screening. The experiment was performed in the presence of ouabain 200 μM and bumetanide 10 μM in all buffers to block the Na^+/K^+ pump and NKCC1 cotransporters, respectively. Briefly, cells in suspension were incubated in the loading buffer containing the dye at room temperature for 90 min (1/2000 dilution of FluxOR reagent) at the density of 100.000 cells/75 μl, then centrifugated and resuspended in Assay buffer at the same cell density. A number of 100.000 cells (75 μl) were manually handled in each well to the 96-wells black-walled, μclear-bottom plates (Greiner Bio-One, Monroe, N.C., USA) and 5 μl of chemical compounds 1-8 at different concentrations in PBS 1% DMSO (5, 30 and 50 μM) were added to the plates using the Biomek® NX Laboratory automation workstation (Beckman Coulter, Villepinte, France). After 15 minutes incubation, baseline fluorescent signal was measured with the Polarstar omega microplate reader (490 nm excitation and 520 nm emission, BMG Labtech). Then 20 μL per well of 5× thallium stimulus buffer (final concentrations: Tl^+: 2 mM, K^+: 10 mM) was injected and fluorescent signal was read 30 minutes later.
For each plate, 2 columns were dedicated to controls (cell density range from 0.25 to 1.10^5 cells; loading buffer as blank; untreated or treated with NEM (33 μM, for 15 min) wild-type and KCC2-expressing HEK293 cells).
Baseline fluorescent value was subtracted from the fluorescent value measured 30 min after stimulus buffer injection for each well, and this difference was normalized to the number of cells. […] Values converted to percentages such that the maximum of ratio is 100%.

KCC2 [2] = test: Western blot of KCC2 in total cell lysate of NSC-34 KCC2 cells; format: cell-based; conditions: 10 μM, 30 min of cell treatment, NSC-34 KCC2 whole cell lysate
Protocol: NSC-34 wild type and KCC2 were cultured in DMEM (Life technologies, Carlsbad, Calif., USA) supplemented with 10% FBS (Life technologies), 50 units/mL penicillin, and 50 µg/mL streptomycin (Life technologies).
Wild-type and KCC2-expressing HEK293 cells or NSC-34 were harvested and homogenised in lysis buffer (PBS containing 1% Igepal CA-630, 0.1% SDS, 10 mM sodium pyrophosphate, 10 mM NaF, 10 mM NaVO4, 10 mM iodoacetamide and cocktail protease inhibitors and centrifugated at 18000 g for 30 minutes at 4° C. Protein concentration in supernatants was determined using DC protein assay (Bio-rad). Same amounts of total proteins were separated in 6% or 7% SDS PAGE and transferred onto PVDF membrane. Once blocked in Tris Buffer Saline 0.05% Tween 5% non-fat dry milk, membranes were probes over night at 4° C. with KCC2 antibody (1/1000 dilution, Merck-Millipore, Billerica, Mass., USA), or anti-phospho-serine940 KCC2 (1/1000 dilution, PhosphoSolutions) or anti-Actin antibody (1/500 dilution, Sigma Aldrich). Anti-rabbit secondary antibody HRP conjugated was used for detection in chemiluminescent system (Thermo Scientific, Waltham, Mass., USA). Signal intensity was measured with the image analysis software Image lab (Bio-Rad, Hercules, Calif., USA). […]

paw withdrawal threshold = test: Von Frey test following spinal cord injury (mechanical hyperalgesia); format: in vivo, rat; conditions: for effect on mechanical hyperalgesia (paw withdrawal threshold): 21 days after injury
Protocol: Thoracic spinal unilateral hemisection in rats was used as a model of SCI. Adult female Wistar Rats (Charles River) were anaesthetized intraperitoneally with 50 mg/kg ketamine (Imalgen®, Merial, Duluth, Ga., USA) and 0.25 mg/kg Medetomidine (Domitor®, Janssen Pharmaceutica, Beerse, Belgium). The antibiotic Amoxycyline (Duphamox LA®, Pfizer, 150 mg/kg) was injected subcutaneously before the surgery. The skin was cut longitudinally over T8-T10 vertebra and a local anesthetic (2% Procaine hydrochloride, Pharmy H, Saint-Germain-en-Laye, France) was injected intramuscularly before cuting the paravertebral muscles. A laminectomy was performed at vertebral segment T9. The spinal cord was hemisected on the left side with microscissors at the level of the T8 spinal segment. Finally, paravertebral muscles and skin were sutured and rats were treated with buprenorphine for analgesia (1 injection before awakening from anaesthesia and 2 more injections over the next 24 h period). Aspirin was diluted in their water bottles for 3 days (aspegic, 200 mg in 150 ml). The rats weight, temperature and water intake were checked and their bladder was emptied manually twice a day until recovery of autonomy.
At day 21 post lesion, the rats were tested once with Von Frey hair and plantar test in order to have their baseline values. […] Then the effects of the drug was measured alternatively on mechanical and thermal hyperalgesia every 15 min, that is at […] after injection, respectively.
The plantar surface of the left, then right hind paws were probed using von Frey monofilaments £Bioseb, Paris, France) which apply different calibrated forces when they bent. The test started by applying a Von Frey hair of 8 g for 3 sec, and the 50% withdrawal thresholds of each hindlimb in response to tactile stimulation were measured using the up and down method (Chaplan et al., 1994).

Compound: CN1CCN(CCCN2c3ccccc3Sc3ccc(Cl)cc32)CC1 [compound 2, 2-chloro-10-[3-(4-methyl-1-piperazinyl)propyl]-10H-phenothiazine]
- specific activation of KCC2 across a dose range (KCC2 [1]): activate specifically KCC2 in a dose dependant manner
- phosphorylated KCC2 on serine 940 (KCC2 [2]): increased
- total KCC2 protein level (monomers+oligomers) (KCC2 [2]): increased
- time after injection at which effects were significant (paw withdrawal threshold; i.p. or i.v., Von Frey test): 40 min
- effect on mechanical hyperalgesia (paw withdrawal threshold) (paw withdrawal threshold; intraperitoneally 2 mg/kg): temporarily reduces mechanical hyperalgesia
- effect on mechanical hyperalgesia (paw withdrawal threshold) (paw withdrawal threshold; intravenously 50 ng/kg): temporarily reduces mechanical hyperalgesia
